Results as given in patent publication US20120301551A1, “COMPOUNDS AND COMPOSITIONS FOR TREATING NEURONAL DEATH OR NEUROLOGICAL DYSFUNCTION” (Neurotech Pharmaceuticals Co., Ltd., priority 2005, published 2012).
Values joined by “and” are separate entries in the source; they are usually repeats but may differ in a detail not shown here. Equal values may be shown once.

Tests used:
G93A transgenic mice = assay type: in vivo, mouse
Protocol: Animals were daily fed with 2-hydroxy TTBA (30 mg/kg/d), 0.2% lithium carbonate (200 mg/kg/d, Li), or a combination of both (2-hydroxy TTBA+Li) from 8 weeks of age in diet.
Animals were daily fed with 2-hydroxy TTBA (30 mg/kg/d), 0.2% lithium carbonate (Li), or a combination of both (2-hydroxy TTBA+Li) from 8 weeks of age in diet.
C & D: (C) Bright-field photomicrographs of cresyl violet-stained ventral horn sections from the wild type (a), or G93AA transgenic mice treated with vehicle (b), or with a combination of 2-hydroxy TTBA+Li (c) at 16 weeks of age.

[1] = test system: neuron-rich cortical cell cultures; test: serum deprivation-induced neuronal cell apoptosis; assay type: cell-based, mouse; conditions: 24 hr, 5 mM Li^+, 100 μM zVADfmk, 1 μM 2-hydroxy TTBA
Protocol: (B) Neuron-rich cortical cell cultures (DIV 7) were deprived of serum, alone or with addition of 100 μM zVADfmk, 1 μM 2-hydroxy TTBA, or 5 mM Li^+. Neuronal death was analyzed 24 hr later by counting viable neurons excluding trypan (mean±SEM, n=4). *, Significant difference from the relevant control (serum deprivation alone), p<0.05 using ANOVA and Student-Neuman-Keuls test. (C) Western blot analysis of FADD antibody following immunoprecipitation with Fas antibody in the same samples above.
Additional experiments were performed to examine if targeting both neuronal cell necrosis and apoptosis would result in synergic neuroprotection in […] transgenic mice. […] Neuronal cell apoptosis was induced by serum deprivation in neuron-rich cortical cell cultures as reported, which was prevented by addition of 5 mM Li^+ as well as zVADfmk, a broad spectrum inhibitor of caspases (FIG. 5B). […] Additional experiments were performed to examine if Li^+ would prevent Fas signaling pathway. […] This implies that 2-Hydroxy-TTBA and Li^+ blocks oxidative neuronal cell necrosis and apoptosis, respectively.

[2] = test system: mesencephalic nerve cell cultures; test: dopaminergic nerve cell death by LPS in mesencephalic cultures ([3H]DA uptake); assay type: cell-based; conditions: 5 ng/ml LPS; 0-100 uM; 7 days
Protocol: Mesencephalic nerve cell cultures were pre-treated with 5 ng/ml of LPS for 30 minutes to make a cull culture model of Parkinson's disease, and then 0-100 uM of chemical 01 were added. 7 days after administration, [^3H]DA uptake was evaluated to quantify the death of the nerve cell (mean±SEM, n=4 culture well/each group).

beta-amyloid (Aβ42) = test: suppression of beta-amyloid (Aβ42) production in CHO cells (ELISA); assay type: cell-based, Chinese hamster; conditions: Cricetulus griseus; CHO cells stably transfected with human wild APP695 and PS1ΔExon9; culture medium, ELISA; read-out: Aβ42 lowering effect (IC50)
Protocol: The suppressing effects of many drug candidates on production of beta-amyloid were evaluated in CHO cell line having the increased level of beta-amyloid. Results were shown as IC50 (uM) (Item C of Table 3 below).
In the Table 3, A, B and C mean neuron protecting effect against Fe^+2, suppressing effect on production of NO and suppressing effect on production of beta-amyloid, respectively. The term “ND” means “Not determined.”
Cells were treated with increasing concentrations of various chemicals in Chinese hamster ovary (CHO) cells stably transfected with human wild APP695 and the PS1ΔExon9, and analyzed Aβ42 levels in culture medium by colorimetric sandwich ELISA kit (BIOSOURCE, Camarillo, Calif.). In CHO cells, IC50 of Chemical—01-08 on Aβ42 lowering effect was 20-100 uM (Table 4).

TNF-α = test: LPS-induced TNF-α production in BV2 cells; assay type: cell-based; conditions: 100 uM; 1 ug/ml LPS, 4 hours
Protocol: Suppressing effects of chemical 01 in BV2 cell lines on production of IL-1β, IL-6 or TNF-α were evaluated. BV2 cells were exposed to 1 ug/ml LPS (inflammation-inducing material) with inclusion of chemical 01 at indicated doses. After 4 hours, supernatant were collected and concentrations of TNF-a were evaluated. In addition, BV2 cells were treated by the same method, and 24 hours later, supernatant were collected and concentrations of IL-1β and IL-6 were evaluated (mean±SEM, n=3). BV2 cells treated with LPS only were used as control.

[3] = test system: reactive oxygen species (ROS) in cortical cell cultures; test: ROS production in cortical cell cultures exposed to FeCl2 (DCF fluorescence); assay type: cell-based; conditions: 1 uM; 50 uM FeCl2
Protocol: It was evaluated whether chemical 01 suppresses reactive oxygen species (ROS) increased by FeCl2. Cortical cell cultures (DIV 11-14) were continuously exposed to 50 uM FeCl2 alone or with inclusion of 1 uM of chemical 01. Then, the fluorescent intensity of 6-carboxy-2′,7′-dichlorofluorescin diacetate (oxidation product of DCDHF-DA) was evaluated (mean±SEM, n=3).

Tg2576 transgenic mice = test: amyloid plaque burden in Tg2576 transgenic mice (Thioflavin-S); assay type: in vivo, mouse
Protocol: […] 18˜20 um brain cryo-sections were stained with 1% Thioflavin-S for 5 minutes and observed under fluorescence microscope system. Amyloid plaque burden/brain was quantified with MetaVue Image software (mean±SEM, n=2).
[…] 18˜20 μm brain sections stained 1% Thioflavin-S for 5 min and observed under fluorescence microscope system.

[4] = test system: APPswe/PS1deltaE9 double transgenic mice; test: brain Aβ40/Aβ42 levels in APPswe/PS1deltaE9 double transgenic mice (ELISA); assay type: in vivo, mouse
Protocol: SDS-soluble/insoluble Aβ40 or Aβ42 levels were analyzed by colorimetric sandwich ELISA kit (BIOSOURCE, Camarillo, Calif.).

[5] = test system: cerebral cortical cell cultures; test: nerve cell death by MPP+ in cerebral cortical cell cultures (LDH); assay type: cell-based; conditions: 50 uM MPP+
Protocol: Cerebral cortical cell cultures (DIV 13˜15) were continuously exposed to 50 uM MPP+ alone or with inclusion of 0.03-3 uM of chemical 01. After 24 hours, activity of LDH released outside cell was evaluated to quantify death of nerve cell (mean±SEM, n=4 culture well/each group).

[6] = DPPH free radical scavenging; assay type: biochemical
Excerpt: Free radical scavenging activity of chemical 01 was directly evaluated with 1,1-diphenyl-2-picrylhydrazil (DPPH, a stable free radical).

[7] = 2-hydroxy TTBA 30 mg/kg/d, 0.2% lithium carbonate, or both, in diet from 8 weeks of age, n=13

## O=C(O)c1cc(NCc2c(F)c(F)c(C(F)(F)F)c(F)c2F)ccc1O [2-Hydroxy-TTBA, 2-hydroxy-5-(2,3,5,6-tetrafluoro-4-trifluoromethyl-benzylamino)-benzoic acid]
G93A transgenic mice; [7]
  Mortality (survival): 143.8 days and 143.8^a ± 2.83 days
  Onset from PaGE: 114.1 days and 114.1^a ± 2.02 days
  Onset from Rotarod: 112.3 days and 112.3^a ± 2.89 days
G93A transgenic mice; G93A mice at 18 weeks of age, oral administration in diet
  weight loss, % of the wild type: 41%
G93A transgenic mice; G93A mice, drug in diet
  extension reflex, motor strength, and coordination: improved
G93A transgenic mice; at 16 weeks of age
  degeneration (loss) of ventral motor neurons in lumbar spinal cord: 57%
G93A transgenic mice; from 11 weeks to 18 weeks, in the diet
  motor performance versus vehicle-treated control: better motor performance
[1]
  serum deprivation-induced neuronal cell apoptosis, effect in words: not attenuated
[1]; listed as 2-hydroxy TTBA
  serum deprivation-induced neuronal cell apoptosis, effect in words: not

## O=C(O)c1cc(NCCc2ccc(C(F)(F)F)cc2)ccc1O [chemical 01, 2-Hydroxy-5-[2-(4-trifluoromethyl-phenyl)-ethylamino]-benzoic acid]
[2]
  dopaminergic nerve cell death caused by LPS: dose-dependent manner
beta-amyloid (Aβ42)
  IC50: 19.6 µM
TNF-α
  decrease of TNF-α released into media: ~70%
[3]
  production of ROS in cell increased by FeCl2: suppressed
Tg2576 transgenic mice; 25 mg/kg/d for 8 months (9~17 month)
  amyloid plaque burden, in words: reduced significantly
Tg2576 transgenic mice; 25 mg/kg/day in chow for 8 months (9~17 months)
  reduction of amyloid plaque burden compared to control: 39.2%
Tg2576 transgenic mice; 100 mg/kg/day for 6 months (from 6 to 12 months)
  reduction in plaque burden: 62%
[4]; 25 mg/kg/d chemical 01 or 62.5 mg/kg/day ibuprofen for 14.5 months
  SDS-soluble/insoluble Aβ40 or Aβ42 levels, in words: reduced
[4]; 25 mg/kg/day for 4 months (from 8.5 to 12.5 month-old)
  reduction in SDS-insoluble Aβ40 levels: 27%
[4]; 25 mg/kg/day for 7 months (from 3.5 to 10.5 months)
  reduction in SDS-insoluble Aβ40 levels: 42%
[5]; 24 hours, LDH, read-out: IC50, nerve cell death caused by MPP+
  IC50: 0.057 µM
[5]; 0.03-3 uM
  nerve cell death caused by MPP+, in words: dose-dependent manner
[6]
  IC50: 9.55 µM
